Here are results for 20 molecules from PubChem BioAssay AID328 (DTP/NCI, 2004).

Several values for one entry are separate records, joined by “and”; a condition that tells them apart may be missing. Identical values can stand only once. Inconclusive results and toxic doses are left out.

The subject of the test is BDF1 mice, P388 leukemia ip, median survival T/C. The test can be described thus: NCI In Vivo Anticancer Drug Screen. Data for tumor model P388 Leukemia (intraperitoneal) in B6D2F1 (BDF1) mice. Conditions: endpoint: median survival time, higher = longer survival. In short, it runs like this:
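Antitumour effect was judged in vivo: survival in drug-treated mice, normalised to that of vehicle-dosed controls, gives the reported T/C.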

Where [1] appears, read: dose: 100.0 mg/kg/injection, schedule: Q01DX009 (ip), vehicle: Klucel (hydroxypropylcellulose) (HPC).
Setting [2] is: dose: 200.0 mg/kg/injection, schedule: Q01DX009 (ip), vehicle: Klucel (hydroxypropylcellulose) (HPC).
Where [3] appears, read: dose: 400.0 mg/kg/injection, schedule: Q01DX009 (ip), vehicle: Klucel (hydroxypropylcellulose) (HPC).
The mark [4] stands for this setting: dose: 12.5 mg/kg/injection, schedule: Q01DX009 (ip), vehicle: saline with Tween-80.
Where [5] appears, read: dose: 25.0 mg/kg/injection, schedule: Q01DX009 (ip), vehicle: saline with Tween-80.
Setting [6] is: dose: 50.0 mg/kg/injection, schedule: Q01DX009 (ip), vehicle: saline with Tween-80.
The mark [7] stands for this setting: dose: 50.0 mg/kg/injection, schedule: Q04DX003 (ip), vehicle: Klucel (hydroxypropylcellulose) (HPC).
Where [8] appears, read: dose: 100.0 mg/kg/injection, schedule: Q04DX003 (ip), vehicle: Klucel (hydroxypropylcellulose) (HPC).
Setting [9] is: dose: 100.0 mg/kg/injection, schedule: Q01DX009 (ip), vehicle: saline with Tween-80.
[10] abbreviates: dose: 100.0 mg/kg/injection, schedule: Q04DX003 (ip), vehicle: saline with Tween-80.
[11] abbreviates: dose: 200.0 mg/kg/injection, schedule: Q04DX003 (ip), vehicle: saline with Tween-80.
Where [12] appears, read: dose: 400.0 mg/kg/injection, schedule: Q04DX003 (ip), vehicle: saline with Tween-80.
Setting [13] is: dose: 200.0 mg/kg/injection, schedule: Q04DX003 (ip), vehicle: Klucel (hydroxypropylcellulose) (HPC).
Where [14] appears, read: dose: 200.0 mg/kg/injection, schedule: Q01DX009 (ip), vehicle: saline with Tween-80.
The mark [15] stands for this setting: dose: 400.0 mg/kg/injection, schedule: Q01DX009 (ip), vehicle: saline with Tween-80.

With `O=C1C=C(C2OC(CO)C(O)C2O)C(=O)N1` (centres undefined), the T/C was 110 % of control (dose: 0.2 mg/kg/injection, schedule: Q01DX010 (ip), vehicle: saline); 95 % of control (dose: 0.37 mg/kg/injection, schedule: Q01DX001 (ip), vehicle: saline); 110 % of control (dose: 0.5 mg/kg/injection, schedule: Q01DX010 (ip), vehicle: saline); 91 % of control (dose: 0.75 mg/kg/injection, schedule: Q01DX001 (ip), vehicle: saline); 95 % of control (dose: 1.5 mg/kg/injection, schedule: Q01DX001 (ip), vehicle: saline); 150 % of control (dose: 2.0 mg/kg/injection, schedule: Q01DX010 (ip), vehicle: saline). The T/C is 110 % of control (dose: 3.0 mg/kg/injection, schedule: Q01DX001 (ip), vehicle: saline); 100 % of control (dose: 6.0 mg/kg/injection, schedule: Q01DX001 (ip), vehicle: saline); 150 % of control and 155 % of control and 157 % of control (dose: 8.0 mg/kg/injection, schedule: Q01DX010 (ip), vehicle: saline); 100 % of control (dose: 12.0 mg/kg/injection, schedule: Q01DX001 (ip), vehicle: saline); 121 % of control (dose: 16.0 mg/kg/injection, schedule: Q01DX010 (ip), vehicle: saline).

As to `CS(=O)(=O)c1nnc(-c2ccccc2)s1`, the T/C runs as follows: under setting [1], 94 % of control; under setting [2], 100 % of control; under setting [3], 103 % of control.

In the case of `O=[N+]([O-])c1ccc(S(=O)(=O)N/N=C\c2ccc(Cl)c(Cl)c2)cc1`, the T/C reads like this: under setting [4], 95 % of control; under setting [5], 92 % of control; under setting [6], 100 % of control.

As to `Cc1cc([N+](=O)[O-])cc([N+](=O)[O-])c1OC(=O)c1ccc(N=C(N)N)cc1`, the T/C was 110 % of control (dose: 25.0 mg/kg/injection, schedule: Q01DX009 (ip), vehicle: saline); 110 % of control (dose: 50.0 mg/kg/injection, schedule: Q01DX009 (ip), vehicle: saline); 109 % of control (dose: 50.0 mg/kg/injection, schedule: Q04DX003 (ip), vehicle: saline); 110 % of control (dose: 100.0 mg/kg/injection, schedule: Q01DX009 (ip), vehicle: saline); 100 % of control (dose: 100.0 mg/kg/injection, schedule: Q04DX003 (ip), vehicle: saline); 110 % of control (dose: 150.0 mg/kg/injection, schedule: Q01DX009 (ip), vehicle: saline). For the same molecule, where the note is “dose: 200.0 mg/kg/injection, schedule: Q04DX003 (ip), vehicle: saline”, the T/C is 90 % of control.

For the molecule `OCC1(CO)COC(c2ccccc2)OC1`, the T/C is, setting by setting: (dose: 25.0 mg/kg/injection, schedule: Q04DX003 (ip), vehicle: Klucel (hydroxypropylcellulose) (HPC)) 95 % of control; under setting [7], 100 % of control; under setting [8], 100 % of control.

As to `C[n+]1c(-c2cc(N)cc(C(F)(F)F)c2)c2cc(N)ccc2c2ccc(N)cc21`, the T/C is, setting by setting: (dose: 6.25 mg/kg/injection, schedule: Q01DX009 (ip), vehicle: water) 150 % of control; (dose: 12.5 mg/kg/injection, schedule: Q01DX009 (ip), vehicle: water) 181 % of control; (dose: 25.0 mg/kg/injection, schedule: Q01DX009 (ip), vehicle: water) 95 % of control.

With `COC(=O)c1cc(=O)nc(N/N=C/c2ccc3c(c2)OCO3)s1`, the T/C is, setting by setting: (dose: 50.0 mg/kg/injection, schedule: Q01DX005 (ip), vehicle: saline with Tween-80) 92 % of control; (dose: 200.0 mg/kg/injection, schedule: Q01DX005 (ip), vehicle: saline with Tween-80) 96 % of control.

As for `CCCNC(=O)/C=C\S(=O)CCC` (centres undefined), the T/C is, setting by setting: under setting [5], 100 % of control; under setting [6], 98 % of control; under setting [9], 112 % of control.

As for `COc1cc2oc3c(c(=O)c2c(O)c1/C=C/C(C)C)C(C=C(C)C)Oc1cc(O)ccc1-3` (centres undefined), the T/C is, setting by setting: (dose: 6.25 mg/kg/injection, schedule: Q01DX009 (ip), vehicle: Klucel (hydroxypropylcellulose) (HPC)) 94 % of control; (dose: 12.5 mg/kg/injection, schedule: Q01DX009 (ip), vehicle: Klucel (hydroxypropylcellulose) (HPC)) 110 % of control; (dose: 25.0 mg/kg/injection, schedule: Q01DX009 (ip), vehicle: Klucel (hydroxypropylcellulose) (HPC)) 108 % of control; (dose: 50.0 mg/kg/injection, schedule: Q01DX009 (ip), vehicle: Klucel (hydroxypropylcellulose) (HPC)) 100 % of control; under setting [1], 107 % of control.

As for `O=C1CCC(=O)N1CC(O)COc1ccc(Cl)cc1` (centres undefined), the T/C runs as follows: under setting [10], 100 % of control; under setting [11], 95 % of control; under setting [12], 100 % of control.

As to `COc1ccc(CC(=O)NCCc2ccccc2)cc1OC`, the T/C runs as follows: under setting [4], 112 % of control; (dose: 12.5 mg/kg/injection, schedule: Q04DX003 (ip), vehicle: saline with Tween-80) 100 % of control; under setting [5], 104 % of control; (dose: 25.0 mg/kg/injection, schedule: Q04DX003 (ip), vehicle: saline with Tween-80) 100 % of control; under setting [6], 110 % of control; (dose: 50.0 mg/kg/injection, schedule: Q04DX003 (ip), vehicle: saline with Tween-80) 109 % of control. The T/C under setting [10] was 99 % of control and 100 % of control.

With `COC(C)C(O)(C(N)=O)C(C)C` (centres undefined), the T/C was 95 % of control under setting [1]; 100 % of control under setting [8]; 86 % of control under setting [2]; 100 % of control under setting [13]; 90 % of control under setting [3]; 100 % of control (dose: 400.0 mg/kg/injection, schedule: Q04DX003 (ip), vehicle: Klucel (hydroxypropylcellulose) (HPC)).

Regarding `Cn1c(C(C)(C)O)cnc1[N+](=O)[O-]`, the T/C runs as follows: under setting [4], 105 % of control; under setting [5], 105 % of control; under setting [6], 110 % of control.

Regarding `COc1ccc(C(CC(=O)c2ccc3c(c2)OCO3)c2c(O)c3ccccc3oc2=O)cc1OC` (centres undefined), the T/C is, setting by setting: under setting [5], 89 % of control; under setting [6], 91 % of control.

Turning to `CCCCSCc1nc2nc(Cl)c(Cl)nc2[nH]1`, the T/C is, setting by setting: under setting [6], 110 % of control; under setting [9], 108 % of control; under setting [10], 109 % of control; under setting [14], 91 % of control; under setting [11], 95 % of control; under setting [15], 94 % of control. The T/C under setting [12] is 95 % of control.

Consider `Brc1ncnc2nc[nH]c12`, for which the T/C was 105 % of control (dose: 100.0 mg/kg/injection, schedule: Q01DX009 (ip), vehicle: saline sonified); 100 % of control (dose: 100.0 mg/kg/injection, schedule: Q04DX003 (ip), vehicle: saline sonified); 111 % of control (dose: 200.0 mg/kg/injection, schedule: Q01DX009 (ip), vehicle: saline sonified); 105 % of control (dose: 200.0 mg/kg/injection, schedule: Q04DX003 (ip), vehicle: saline sonified); 116 % of control (dose: 400.0 mg/kg/injection, schedule: Q01DX009 (ip), vehicle: saline sonified); 100 % of control (dose: 400.0 mg/kg/injection, schedule: Q04DX003 (ip), vehicle: saline sonified).

For `Nc1ccc(Nc2ccncc2)cc1`, the T/C is, setting by setting: under setting [7], 100 % of control; under setting [8], 95 % of control; under setting [13], 90 % of control.

With `NNC(=O)c1cnccn1`, the T/C (dose: 40.0 mg/kg/injection, schedule: Q01DX010 (ip), vehicle: water) was 100 % of control; the T/C (dose: 60.0 mg/kg/injection, schedule: Q01DX010 (ip), vehicle: water) was 100 % of control; the T/C (dose: 80.0 mg/kg/injection, schedule: Q01DX010 (ip), vehicle: water) is 100 % of control and 109 % of control.

Take `Cc1onc(-c2ccccc2)c1NC(=O)OC(C)c1cccnc1` (centres undefined): the T/C is 103 % of control under setting [6], 108 % of control under setting [9] and 119 % of control under setting [14].

For the molecule `O=C(/C=C/c1ccc(Br)cc1)c1ccc(Cl)cc1`, the T/C reads like this: under setting [9], 100 % of control; under setting [10], 100 % of control; under setting [14], 110 % of control; under setting [11], 100 % of control; under setting [15], 100 % of control; under setting [12], 90 % of control.
